Assay results reported in patent publication US9630894B2, “Energy efficient method and apparatus for the extraction of biomolecules from dilute aqueous solution” (DYNASEP INC., priority 2012, dated 2017).
“Also recorded” adds a separate entry of the source.

How the values were obtained:
[1] = system: fermentation cultures; experiment: DME toxicity study: viability by colony forming units (CFU) after 24 hours; type: cell-based
Protocol: (§1) Toxicity studies were performed to determine the effects of DME on fermentation cultures. Cell growth, viability and solvent production were measured to determine what effect DME has on fermentation cultures. Cell growth was monitored by absorption measurements taken at 600 nm (A600). Viability was measured by counting the colony forming units (CFU) after 24 hours. Solvent production was quantified by HPLC.
(§2) The first round of testing was performed using media that had been sparged with DME gas at 23° C. The amount of DME absorbed into the media was measured by weight gain after sparging. […] Two control cultures were also used for direct comparison of cultures with and without the presence of DME.

[2] = cited from earlier work
[3] = system: fermentation cultures; experiment: DME toxicity study: cell growth by absorption at 600 nm (A600); type: cell-based
Protocol: as §1, §2
A second round of testing was performed at lower DME concentrations. […] Based on the solvent measurements in Table 8 and Table 9 solvent production was also unaffected by DME at 0.7 wt. %. […] This is apparent after examination of the cell density and solvent production for samples 1-5, 2-1, 2-4 and 2-5 in comparison to the control samples 1-B and 2-B.

**Q.** With `COC` [DME, dimethyl ether] as the molecule, how does the “CFU/ml after 24 hours” value ([1]; culture 1-2, 3.48% DME) read?
**A.** >10000 CFU/ml

**Q.** What about the “CFU/ml after 24 hours” value ([1]; culture 1-3, […] DME) of the same molecule?
**A.** 200000 CFU/ml

**Q.** And the “CFU/ml after 24 hours” value ([1]; culture 2-1, weight % DME printed as ?)?
**A.** 0 CFU/ml

**Q.** And the “CFU/ml after 24 hours” value ([1]; culture 2-2, 3.92% DME)?
**A.** 4480 CFU/ml

**Q.** What about the “CFU/ml after 24 hours” value ([1]; culture 2-3, 3.72% DME) of the same molecule?
**A.** 130 CFU/ml

**Q.** And the solubility in water [2]?
**A.** approximately 20 wt. %

**Q.** And the “effect on growth and solvent production” value ([3]; DME above 2.5 wt. % (2.5 to 3 wt. %))?
**A.** substantial decrease; also recorded: more substantially inhibited; also recorded: severely inhibit

**Q.** And the “effect on growth and solvent production” value ([3]; DME approximately 1.6 wt. %)?
**A.** some inhibition; also recorded: partially inhibit

**Q.** What about the “effect on cell growth and solvent production” value ([3]; DME below 0.7 wt. %) of the same molecule?
**A.** did not appear to inhibit growth; also recorded: do not have a noticeable effect; also recorded: have no observable effect; also recorded: no noticeable effect

**Q.** What about the A600 ([3]; culture 1-1, […] DME, 4 hours) of the same molecule?
**A.** 0.184

**Q.** And the A600 ([3]; culture 1-1, […] DME, 7 hours)?
**A.** 0.241

**Q.** And the A600 ([3]; culture 1-1, […] DME, 28 hours)?
**A.** 0.137

**Q.** What about the A600 ([3]; culture 1-1, […] DME, 196 hours) of the same molecule?
**A.** 0.075

**Q.** And the A600 ([3]; culture 1-2, 3.48% DME, 4 hours)?
**A.** 0.205

**Q.** What about the A600 ([3]; culture 1-2, 3.48% DME, 7 hours) of the same molecule?
**A.** 0.194

**Q.** And the A600 ([3]; culture 1-2, 3.48% DME, 28 hours)?
**A.** 0.175

**Q.** And the A600 ([3]; culture 1-2, 3.48% DME, 196 hours)?
**A.** 0.39

**Q.** And the A600 values ([3]; culture 1-2, DME 18.1 g/L, 3 hours)?
**A.** 0.523

**Q.** And the A600 values ([3]; culture 1-2, DME 18.1 g/L, 24 hours)?
**A.** 2.565

**Q.** What about the A600 values ([3]; culture 1-2, DME 18.1 g/L, 40 hours) of the same molecule?
**A.** 1.82

**Q.** What about the A600 values ([3]; culture 1-2, DME 18.1 g/L, 64 hours) of the same molecule?
**A.** 1.97

**Q.** What about the A600 values ([3]; culture 1-3, DME 19.4 g/L, 3 hours) of the same molecule?
**A.** 0.463

**Q.** What about the A600 values ([3]; culture 1-3, DME 19.4 g/L, 24 hours) of the same molecule?
**A.** 2.695

**Q.** And the A600 values ([3]; culture 1-3, DME 19.4 g/L, 40 hours)?
**A.** 2.16

**Q.** And the A600 values ([3]; culture 1-3, DME 19.4 g/L, 64 hours)?
**A.** 2.15

**Q.** And the A600 ([3]; culture 1-3, […] DME, 4 hours)?
**A.** 0.340

**Q.** And the A600 ([3]; culture 1-3, […] DME, 7 hours)?
**A.** 0.690

**Q.** What about the A600 ([3]; culture 1-3, […] DME, 22 hours) of the same molecule?
**A.** 1.745

**Q.** What about the A600 ([3]; culture 1-3, […] DME, 28 hours) of the same molecule?
**A.** 1.69

**Q.** What about the A600 ([3]; culture 1-3, […] DME, 196 hours) of the same molecule?
**A.** 1.08

**Q.** And the A600 values ([3]; culture 1-4*, DME 43.8 g/L, 3 hours)?
**A.** 0.807

**Q.** And the A600 values ([3]; culture 1-4*, DME 43.8 g/L, 24 hours)?
**A.** 3.005

**Q.** What about the A600 values ([3]; culture 1-4*, DME 43.8 g/L, 40 hours) of the same molecule?
**A.** 1.95

**Q.** What about the A600 values ([3]; culture 1-4*, DME 43.8 g/L, 64 hours) of the same molecule?
**A.** 2.14

**Q.** And the A600 values ([3]; culture 1-5, DME 25.8 g/L, 3 hours)?
**A.** 0.543

**Q.** And the A600 values ([3]; culture 1-5, DME 25.8 g/L, 24 hours)?
**A.** 1.415

**Q.** And the A600 values ([3]; culture 1-5, DME 25.8 g/L, 40 hours)?
**A.** 1.28

**Q.** What about the A600 values ([3]; culture 1-5, DME 25.8 g/L, 64 hours) of the same molecule?
**A.** 1.26

**Q.** And the A600 values ([3]; culture 2-1, DME 26.0 g/L, 3 hours)?
**A.** 0.505

**Q.** What about the A600 values ([3]; culture 2-1, DME 26.0 g/L, 24 hours) of the same molecule?
**A.** 1.390

**Q.** What about the A600 values ([3]; culture 2-1, DME 26.0 g/L, 40 hours) of the same molecule?
**A.** 2.48

**Q.** And the A600 values ([3]; culture 2-1, DME 26.0 g/L, 64 hours)?
**A.** 2.24

**Q.** What about the A600 ([3]; culture 2-1, weight % DME printed as ?, 4 hours) of the same molecule?
**A.** 0.140

**Q.** What about the A600 ([3]; culture 2-1, weight % DME printed as ?, 7 hours) of the same molecule?
**A.** 0.157

**Q.** And the A600 ([3]; culture 2-1, weight % DME printed as ?, 28 hours)?
**A.** 0.072

**Q.** What about the A600 ([3]; culture 2-1, weight % DME printed as ?, 196 hours) of the same molecule?
**A.** 0.05

**Q.** And the A600 ([3]; culture 2-2, 3.92% DME, 4 hours)?
**A.** 0.173

**Q.** And the A600 ([3]; culture 2-2, 3.92% DME, 7 hours)?
**A.** 0.178

**Q.** And the A600 ([3]; culture 2-2, 3.92% DME, 28 hours)?
**A.** 0.127

**Q.** And the A600 ([3]; culture 2-2, 3.92% DME, 196 hours)?
**A.** 0.32

**Q.** And the A600 values ([3]; culture 2-2, DME 6.8 g/L, 3 hours)?
**A.** 0.776

**Q.** What about the A600 values ([3]; culture 2-2, DME 6.8 g/L, 24 hours) of the same molecule?
**A.** 3.755

**Q.** And the A600 values ([3]; culture 2-2, DME 6.8 g/L, 40 hours)?
**A.** 1.29

**Q.** And the A600 values ([3]; culture 2-2, DME 6.8 g/L, 64 hours)?
**A.** 1.36

**Q.** What about the A600 ([3]; culture 2-3, 3.72% DME, 4 hours) of the same molecule?
**A.** 0.230

**Q.** What about the A600 ([3]; culture 2-3, 3.72% DME, 7 hours) of the same molecule?
**A.** 0.159

**Q.** And the A600 ([3]; culture 2-3, 3.72% DME, 28 hours)?
**A.** 0.077

**Q.** And the A600 ([3]; culture 2-3, 3.72% DME, 196 hours)?
**A.** 0.06

**Q.** And the A600 values ([3]; culture 2-3, DME 6.6 g/L, 3 hours)?
**A.** 0.783

**Q.** And the A600 values ([3]; culture 2-3, DME 6.6 g/L, 24 hours)?
**A.** 3.700

**Q.** What about the A600 values ([3]; culture 2-3, DME 6.6 g/L, 40 hours) of the same molecule?
**A.** 2.65

**Q.** What about the A600 values ([3]; culture 2-3, DME 6.6 g/L, 64 hours) of the same molecule?
**A.** 2.63

**Q.** What about the A600 values ([3]; culture 2-4, DME 29.1 g/L, 3 hours) of the same molecule?
**A.** 0.590

**Q.** What about the A600 values ([3]; culture 2-4, DME 29.1 g/L, 24 hours) of the same molecule?
**A.** 1.195

**Q.** And the A600 values ([3]; culture 2-4, DME 29.1 g/L, 40 hours)?
**A.** 2.63

**Q.** And the A600 values ([3]; culture 2-4, DME 29.1 g/L, 64 hours)?
**A.** 2.19

**Q.** What about the A600 values ([3]; culture 2-5, DME 27.9 g/L, 3 hours) of the same molecule?
**A.** 0.885

**Q.** And the A600 values ([3]; culture 2-5, DME 27.9 g/L, 24 hours)?
**A.** 1.735

**Q.** What about the A600 values ([3]; culture 2-5, DME 27.9 g/L, 40 hours) of the same molecule?
**A.** 1.18

**Q.** And the A600 values ([3]; culture 2-5, DME 27.9 g/L, 64 hours)?
**A.** 1.19

**Q.** What about the “effect on cell growth” value ([3]; media containing 3 to 4 wt. % DME) of the same molecule?
**A.** substantial reduction in cell growth
